From PubChem BioAssay AID248 (DTP/NCI, 2004)
“And” between values parts separate entries of the source, which are not always exact repeats. Equal values may be shown once. Inconclusive results and toxic doses are left out. No stated cut-off is given here; in the data, active means T/C of 150% or more; inactive means T/C below 125%.

Tested on: L1210 leukemia ip in BDF1 mice, survival T/C
Assay: NCI In Vivo Anticancer Drug Screen. Data for tumor model L1210 Leukemia (intraperitoneal) in B6D2F1 (BDF1) mice
Details: endpoint: mean survival time, higher = longer survival
In short: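 Each compound was tested against a transplantable tumor grown in mice. The endpoint was survival, with treated animals benchmarked against vehicle controls as a simple ratio.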

[1] = dose: 100.0 mg/kg/injection, schedule: Q01DX009 (ip), vehicle: Klucel (hydroxypropylcellulose) (HPC)
[2] = dose: 200.0 mg/kg/injection, schedule: Q01DX009 (ip), vehicle: Klucel (hydroxypropylcellulose) (HPC)
[3] = dose: 400.0 mg/kg/injection, schedule: Q01DX009 (ip), vehicle: Klucel (hydroxypropylcellulose) (HPC)
[4] = dose: 100.0 mg/kg/injection, schedule: Q04DX003 (ip), vehicle: Klucel (hydroxypropylcellulose) (HPC)
[5] = dose: 200.0 mg/kg/injection, schedule: Q04DX003 (ip), vehicle: Klucel (hydroxypropylcellulose) (HPC)
[6] = dose: 400.0 mg/kg/injection, schedule: Q04DX003 (ip), vehicle: Klucel (hydroxypropylcellulose) (HPC)
[7] = dose: 50.0 mg/kg/injection, schedule: Q01DX001 (ip), vehicle: carboxymethylcellulose (CMC)
[8] = dose: 100.0 mg/kg/injection, schedule: Q01DX001 (ip), vehicle: carboxymethylcellulose (CMC)
[9] = dose: 200.0 mg/kg/injection, schedule: Q01DX001 (ip), vehicle: carboxymethylcellulose (CMC)
[10] = dose: 400.0 mg/kg/injection, schedule: Q01DX001 (ip), vehicle: carboxymethylcellulose (CMC)
[11] = dose: 50.0 mg/kg/injection, schedule: Q01DX009 (ip), vehicle: saline
[12] = dose: 100.0 mg/kg/injection, schedule: Q01DX009 (ip), vehicle: saline
[13] = dose: 200.0 mg/kg/injection, schedule: Q01DX009 (ip), vehicle: saline
[14] = dose: 100.0 mg/kg/injection, schedule: Q01DX001 (ip), vehicle: saline
[15] = dose: 200.0 mg/kg/injection, schedule: Q01DX001 (ip), vehicle: saline
[16] = dose: 400.0 mg/kg/injection, schedule: Q01DX001 (ip), vehicle: saline
[17] = dose: 100.0 mg/kg/injection, schedule: Q01DX001 (ip), vehicle: saline with Tween-80
[18] = dose: 200.0 mg/kg/injection, schedule: Q01DX001 (ip), vehicle: saline with Tween-80
[19] = dose: 400.0 mg/kg/injection, schedule: Q01DX001 (ip), vehicle: saline with Tween-80
[20] = dose: 50.0 mg/kg/injection, schedule: Q01DX009 (ip), vehicle: saline with Tween-80
[21] = dose: 100.0 mg/kg/injection, schedule: Q01DX009 (ip), vehicle: saline with Tween-80
[22] = dose: 100.0 mg/kg/injection, schedule: Q04DX003 (ip), vehicle: saline with Tween-80
[23] = dose: 200.0 mg/kg/injection, schedule: Q01DX009 (ip), vehicle: saline with Tween-80
[24] = dose: 200.0 mg/kg/injection, schedule: Q04DX003 (ip), vehicle: saline with Tween-80
[25] = dose: 400.0 mg/kg/injection, schedule: Q01DX009 (ip), vehicle: saline with Tween-80
[26] = dose: 400.0 mg/kg/injection, schedule: Q04DX003 (ip), vehicle: saline with Tween-80

Measured: T/C

Cc1ccc(Cl)cc1NC(=O)C(Cl)Cl
inactive: [1] 92 % of control | [2] 89 % of control | [3] 90 % of control

Cc1cccc2c(C)c3cccc[n+]3cc12
inactive: dose: 2.0 mg/kg/injection, schedule: Q01DX Z (ip), vehicle: carboxymethylcellulose (CMC) 113 % of control | dose: 4.0 mg/kg/injection, schedule: Q01DX Z (ip), vehicle: carboxymethylcellulose (CMC) 110 % of control | dose: 8.0 mg/kg/injection, schedule: Q01DX Z (ip), vehicle: carboxymethylcellulose (CMC) 113 % of control and 123 % of control | dose: 16.0 mg/kg/injection, schedule: Q01DX Z (ip), vehicle: carboxymethylcellulose (CMC) 115 % of control and 119 % of control

O=S1(=O)C(c2ccccc2)=Cc2cccn2-c2ccccc21
inactive: [4] 95 % of control | [5] 104 % of control | [6] 98 % of control

CCC1(O)CCCC1
inactive: [7] 95 % of control | [8] 92 % of control | [9] 92 % of control | [10] 97 % of control

COC(C)(C)C(Br)C(=O)OCC(=O)c1ccc(Br)cc1 (centres undefined)
inactive: [7] 104 % of control | [8] 108 % of control | [9] 102 % of control | [10] 102 % of control

ClCc1ccc(CCl)c2ccccc12
inactive: [4] 104 % of control | [5] 105 % of control | [6] 100 % of control

CC(C)C(N)C(=O)NO (centres undefined)
inactive: [11] 95 % of control | [12] 100 % of control | [13] 107 % of control | dose: 400.0 mg/kg/injection, schedule: Q01DX009 (ip), vehicle: saline 110 % of control

C/C(=N/O)c1ccc2c(c1)Cc1ccccc1-2
inactive: [8] 105 % of control | [9] 100 % of control | [10] 98 % of control

CC(=O)OC1CCC2(C)C(CCC3C2CCC2(C)C(C(C)=O)CCC32)C1 (centres undefined)
inactive: dose: 100.0 mg/kg/injection, schedule: Q01DX009 (sc), vehicle: steriod suspending solution 95 % of control | dose: 200.0 mg/kg/injection, schedule: Q01DX009 (sc), vehicle: steriod suspending solution 95 % of control | dose: 400.0 mg/kg/injection, schedule: Q01DX009 (sc), vehicle: steriod suspending solution 90 % of control

CCOC(=O)c1ccc(NC(=O)Nc2ccc(SC)cc2)cc1
inactive: [1] 98 % of control | [2] 95 % of control | [3] 104 % of control

O=C(O)c1c(Br)c(Br)c(Br)c(Br)c1C(=O)Nc1cccc2ccccc12
inactive: dose: 100.0 mg/kg/injection, schedule: Q04DX002 (ip), vehicle: saline with Tween-80 97 % of control | dose: 200.0 mg/kg/injection, schedule: Q04DX002 (ip), vehicle: saline with Tween-80 97 % of control | dose: 400.0 mg/kg/injection, schedule: Q04DX002 (ip), vehicle: saline with Tween-80 94 % of control

O=C(Nc1cccnc1)c1ccccc1
inactive: dose: 6.25 mg/kg/injection, schedule: Q04DX003 (ip), vehicle: saline with Tween-80 92 % of control | dose: 12.5 mg/kg/injection, schedule: Q04DX003 (ip), vehicle: saline with Tween-80 97 % of control | dose: 25.0 mg/kg/injection, schedule: Q04DX003 (ip), vehicle: saline with Tween-80 99 % of control

COc1ccc(CCN(C)C(c2ccccc2)c2ccccc2)cc1OC
inactive: [14] 100 % of control | [15] 96 % of control | [16] 104 % of control

CSCCCCCCSC
inactive: [11] 101 % of control | [12] 96 % of control | [13] 90 % of control

O=C1C(N2CCCCC2)=C(c2ccccc2)c2ccccc21
inactive: [14] 92 % of control | [15] 94 % of control | [16] 102 % of control

O=C(CCc1ccccc1)NC1CCCCC1
inactive: dose: 12.5 mg/kg/injection, schedule: Q01DX001 (ip), vehicle: Klucel (hydroxypropylcellulose) (HPC) 104 % of control | dose: 12.5 mg/kg/injection, schedule: Q04DX003 (ip), vehicle: saline 88 % of control | dose: 25.0 mg/kg/injection, schedule: Q01DX001 (ip), vehicle: Klucel (hydroxypropylcellulose) (HPC) 104 % of control | dose: 25.0 mg/kg/injection, schedule: Q04DX003 (ip), vehicle: saline 88 % of control | dose: 50.0 mg/kg/injection, schedule: Q01DX001 (ip), vehicle: Klucel (hydroxypropylcellulose) (HPC) 98 % of control | dose: 50.0 mg/kg/injection, schedule: Q04DX003 (ip), vehicle: saline 93 % of control

COc1cc(Cc2c(C=O)[nH]c(=S)[nH]c2=O)cc(OC)c1OC
inactive: [17] 90 % of control | [18] 89 % of control | [19] 96 % of control

CN(C)[C@@H]1C(=O)C(C(=O)NCNc2cccc(C(=O)O)c2C(=O)O)=C(O)[C@@]2(O)C(=O)C3=C(O)c4c(O)cccc4[C@@](C)(O)[C@H]3C[C@@H]12
inactive: dose: 100.0 mg/kg/injection, schedule: Q01DX Z (ip), vehicle: saline 110 % of control | dose: 150.0 mg/kg/injection, schedule: Q01DX Z (ip), vehicle: saline 105 % of control | dose: 225.0 mg/kg/injection, schedule: Q01DX Z (ip), vehicle: saline 104 % of control | dose: 340.0 mg/kg/injection, schedule: Q01DX Z (ip), vehicle: saline 103 % of control

CCN(CC)c1ccc(NC(=O)Nc2ccccc2OC)cc1
inactive: [20] 103 % of control | [21] 93 % of control and 101 % of control | [22] 103 % of control | [23] 101 % of control | [24] 97 % of control | [25] 95 % of control | [26] 96 % of control

CCCCC(=O)NCCc1ccc2c([nH]c3ccccc32)c1C
inactive: dose: 100.0 mg/kg/injection, schedule: Q04DX003 (ip), vehicle: saline 96 % of control | dose: 200.0 mg/kg/injection, schedule: Q04DX003 (ip), vehicle: saline 104 % of control | dose: 400.0 mg/kg/injection, schedule: Q04DX003 (ip), vehicle: saline 96 % of control

CCN(CC)CCCCCCn1c2ccccc2c2c(C)c3cnccc3c(C)c21
inactive: dose: 25.0 mg/kg/injection, schedule: Q01DX009 (ip), vehicle: saline with Tween-80 108 % of control | [20] 102 % of control | [21] 105 % of control

CCC(=O)Nc1ccc(OS(=O)(=O)N(C)C)cc1
inactive: [17] 100 % of control | [18] 95 % of control | [19] 100 % of control

COc1ccc2ncc(C)c(C=O)c2c1
inactive: [1] 95 % of control | [2] 96 % of control | [3] 110 % of control

COc1ccccc1CNCc1ccccc1
inactive: dose: 75.0 mg/kg/injection, schedule: Q01DX001 (ip), vehicle: other 101 % of control

CN(C)C(=S)SCNC(=S)NCSC(=S)N(C)C
inactive: [4] 106 % of control | [5] 96 % of control | [6] 98 % of control

COC(=O)/C(C#N)=C/c1c[nH]c2ccccc12
inactive: [21] 101 % of control | [22] 101 % of control | [23] 95 % of control | [24] 93 % of control | [25] 100 % of control | [26] 98 % of control

CCc1ccc(P(=O)(O)O)cc1
inactive: dose: 75.0 mg/kg/injection, schedule: Q01DX001 (ip), vehicle: saline 94 % of control | dose: 150.0 mg/kg/injection, schedule: Q01DX001 (ip), vehicle: saline 103 % of control | dose: 300.0 mg/kg/injection, schedule: Q01DX001 (ip), vehicle: saline 88 % of control

C/C(=C/CO)CC/C=C(\C)CC/C=C(\C)CCC1OC1(C)C (centres undefined)
inactive: [14] 92 % of control | [15] 96 % of control | [16] 102 % of control

CC(C)=CC[Se]c1ncnc2c1ncn2C1OC(CO)C(O)C1O (centres undefined)
inactive: dose: 12.5 mg/kg/injection, schedule: Q01DX005 (ip), vehicle: saline 91 % of control | dose: 25.0 mg/kg/injection, schedule: Q01DX005 (ip), vehicle: saline 91 % of control | dose: 50.0 mg/kg/injection, schedule: Q01DX005 (ip), vehicle: saline 87 % of control

O=C1c2cc(Br)ccc2-c2c(I)cc(Br)cc21
inactive: [7] 103 % of control | [8] 100 % of control | [9] 100 % of control | [10] 100 % of control
